Measured values published in publication PMC8800111 (The Journal of Biological Chemistry, 2021).

Legend:
Assay type in all cases: cell-based
[1] = biological target: proteins of U3A human fibrosarcoma cells (4462 proteins detected) (Homo sapiens, UniProt O00622); conditions: protein CYR61; U3A cells
[2] = biological target: proteins of U3A human fibrosarcoma cells (4462 proteins detected) (Homo sapiens, UniProt O60749); conditions: protein SNX2; U3A cells
[3] = biological target: proteins of U3A human fibrosarcoma cells (4462 proteins detected) (Homo sapiens, UniProt O75396); conditions: protein SEC22B; U3A cells
[4] = biological target: proteins of U3A human fibrosarcoma cells (4462 proteins detected) (Homo sapiens, UniProt O94829); conditions: protein IPO13; U3A cells
[5] = biological target: proteins of U3A human fibrosarcoma cells (4462 proteins detected) (Homo sapiens, UniProt P09874); conditions: protein PARP1; U3A cells
[6] = biological target: proteins of U3A human fibrosarcoma cells (4462 proteins detected) (Homo sapiens, UniProt P0C2W1); conditions: protein FBXO45, U3A cells
[7] = biological target: proteins of U3A human fibrosarcoma cells (4462 proteins detected) (Homo sapiens, UniProt P11388); conditions: protein TOP2A; U3A cells
[8] = biological target: proteins of U3A human fibrosarcoma cells (4462 proteins detected) (Homo sapiens, UniProt P15153); conditions: protein RAC2; U3A, 10 μM, 2 h
[9] = biological target: proteins of U3A human fibrosarcoma cells (4462 proteins detected) (Homo sapiens, UniProt P30519); conditions: protein HMOX2; U3A, 10 μM, 2 h
[10] = biological target: proteins of U3A human fibrosarcoma cells (4462 proteins detected) (Homo sapiens, UniProt P35232); conditions: protein PHB; U3A cells
[11] = biological target: proteins of U3A human fibrosarcoma cells (4462 proteins detected) (Homo sapiens, UniProt P40227); conditions: protein CCT6A; U3A cells
[12] = biological target: proteins of U3A human fibrosarcoma cells (4462 proteins detected) (Homo sapiens, UniProt P48556); conditions: protein PSMD8; U3A cells
[13] = biological target: proteins of U3A human fibrosarcoma cells (4462 proteins detected) (Homo sapiens, UniProt P49247); conditions: protein RPIA, U3A cells
[14] = biological target: proteins of U3A human fibrosarcoma cells (4462 proteins detected) (Homo sapiens, UniProt P54886); conditions: protein ALDH18A1; U3A cells
[15] = biological target: proteins of U3A human fibrosarcoma cells (4462 proteins detected) (Homo sapiens, UniProt P62847); conditions: protein RPS24, U3A cells
[16] = biological target: proteins of U3A human fibrosarcoma cells (4462 proteins detected) (Homo sapiens, UniProt P62937); conditions: protein PPIA
[17] = biological target: proteins of U3A human fibrosarcoma cells (4462 proteins detected) (Homo sapiens, UniProt P82933); conditions: protein MRPS9; soluble abundance after heat, U3A cells
[18] = biological target: proteins of U3A human fibrosarcoma cells (4462 proteins detected) (Homo sapiens, UniProt Q06323); conditions: protein PSME1; soluble abundance after heat, U3A cells
[19] = biological target: proteins of U3A human fibrosarcoma cells (4462 proteins detected) (Homo sapiens, UniProt Q07020); conditions: protein RPL18; soluble abundance after heat, U3A cells
[20] = biological target: proteins of U3A human fibrosarcoma cells (4462 proteins detected) (Homo sapiens, UniProt Q14651); conditions: protein PLS1; U3A cells
[21] = biological target: proteins of U3A human fibrosarcoma cells (4462 proteins detected) (Homo sapiens, UniProt Q86TB9); conditions: protein PATL1; U3A cells
[22] = biological target: proteins of U3A human fibrosarcoma cells (4462 proteins detected) (Homo sapiens, UniProt Q8N9N2); conditions: protein ASCC1; U3A cells
[23] = biological target: proteins of U3A human fibrosarcoma cells (4462 proteins detected) (Homo sapiens, UniProt Q8NFQ8); conditions: protein TOR1AIP2; U3A cells
[24] = biological target: proteins of U3A human fibrosarcoma cells (4462 proteins detected) (Homo sapiens, UniProt Q8WW01); conditions: protein TSEN15; U3A, 10 μM, 2 h
[25] = biological target: proteins of U3A human fibrosarcoma cells (4462 proteins detected) (Homo sapiens, UniProt Q96TC7); conditions: protein RMDN3; U3A cells
[26] = biological target: proteins of U3A human fibrosarcoma cells (4462 proteins detected) (Homo sapiens, UniProt Q9BSL1); conditions: protein UBAC1; soluble abundance after heat, U3A cells
[27] = biological target: proteins of U3A human fibrosarcoma cells (4462 proteins detected) (Homo sapiens, UniProt Q9BUL5); conditions: protein PHF23, U3A cells
[28] = biological target: proteins of U3A human fibrosarcoma cells (4462 proteins detected) (Homo sapiens, UniProt Q9UFW8); conditions: protein CGGBP1; soluble abundance after heat, U3A cells
[29] = biological target: proteins of U3A human fibrosarcoma cells (4462 proteins detected) (Homo sapiens, UniProt Q9UJF2); conditions: protein RASAL2, U3A cells
[30] = biological target: proteins of U3A human fibrosarcoma cells (4462 proteins detected) (Homo sapiens, UniProt Q9ULX3); conditions: protein NOB1; U3A cells
Chain of proteins of U3A human fibrosarcoma cells (4462 proteins detected) (Homo sapiens, UniProt Q9ULX3) (Q9ULX3 whole entry): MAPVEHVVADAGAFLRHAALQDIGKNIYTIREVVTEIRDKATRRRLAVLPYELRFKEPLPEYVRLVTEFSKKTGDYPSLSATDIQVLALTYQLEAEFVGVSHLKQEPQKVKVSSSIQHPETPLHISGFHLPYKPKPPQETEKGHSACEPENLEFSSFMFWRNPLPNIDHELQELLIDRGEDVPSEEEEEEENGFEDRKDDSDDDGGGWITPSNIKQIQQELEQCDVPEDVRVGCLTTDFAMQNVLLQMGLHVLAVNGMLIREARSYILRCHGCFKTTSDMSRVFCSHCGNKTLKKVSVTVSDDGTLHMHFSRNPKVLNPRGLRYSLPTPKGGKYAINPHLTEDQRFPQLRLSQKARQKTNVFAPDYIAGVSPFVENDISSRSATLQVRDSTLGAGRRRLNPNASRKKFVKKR

Chain of proteins of U3A human fibrosarcoma cells (4462 proteins detected) (Homo sapiens, UniProt P62937) (P62937 whole entry): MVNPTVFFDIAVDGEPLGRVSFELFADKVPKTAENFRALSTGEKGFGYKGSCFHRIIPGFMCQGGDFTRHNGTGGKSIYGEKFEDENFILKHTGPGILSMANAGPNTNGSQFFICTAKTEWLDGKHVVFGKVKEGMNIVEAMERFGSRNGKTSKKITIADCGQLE
Chain of proteins of U3A human fibrosarcoma cells (4462 proteins detected) (Homo sapiens, UniProt P35232) (P35232 whole entry): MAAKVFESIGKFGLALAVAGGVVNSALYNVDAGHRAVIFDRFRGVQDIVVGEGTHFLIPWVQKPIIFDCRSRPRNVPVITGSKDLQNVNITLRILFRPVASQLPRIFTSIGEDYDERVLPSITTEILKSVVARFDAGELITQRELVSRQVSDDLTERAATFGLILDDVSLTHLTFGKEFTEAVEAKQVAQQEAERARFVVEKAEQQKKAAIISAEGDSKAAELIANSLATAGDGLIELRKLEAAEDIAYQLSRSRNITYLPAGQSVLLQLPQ
Chain of proteins of U3A human fibrosarcoma cells (4462 proteins detected) (Homo sapiens, UniProt Q14651) (Q14651 whole entry): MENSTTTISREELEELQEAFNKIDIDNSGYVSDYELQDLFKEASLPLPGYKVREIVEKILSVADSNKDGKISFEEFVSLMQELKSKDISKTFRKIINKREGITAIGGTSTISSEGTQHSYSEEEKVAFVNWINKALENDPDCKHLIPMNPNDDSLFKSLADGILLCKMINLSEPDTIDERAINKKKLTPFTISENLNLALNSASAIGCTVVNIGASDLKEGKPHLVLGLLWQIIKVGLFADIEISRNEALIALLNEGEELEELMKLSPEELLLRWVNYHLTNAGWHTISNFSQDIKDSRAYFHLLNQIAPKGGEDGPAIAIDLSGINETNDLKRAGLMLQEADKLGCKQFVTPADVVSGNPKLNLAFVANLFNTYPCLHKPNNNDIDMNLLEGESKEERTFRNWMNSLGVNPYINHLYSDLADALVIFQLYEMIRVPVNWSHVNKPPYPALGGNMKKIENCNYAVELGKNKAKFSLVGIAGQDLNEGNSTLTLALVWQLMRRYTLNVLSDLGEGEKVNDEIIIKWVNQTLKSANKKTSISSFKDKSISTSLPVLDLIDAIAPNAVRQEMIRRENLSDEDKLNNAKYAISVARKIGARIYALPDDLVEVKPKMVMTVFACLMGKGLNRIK
Chain of proteins of U3A human fibrosarcoma cells (4462 proteins detected) (Homo sapiens, UniProt Q9UFW8) (Q9UFW8 whole entry): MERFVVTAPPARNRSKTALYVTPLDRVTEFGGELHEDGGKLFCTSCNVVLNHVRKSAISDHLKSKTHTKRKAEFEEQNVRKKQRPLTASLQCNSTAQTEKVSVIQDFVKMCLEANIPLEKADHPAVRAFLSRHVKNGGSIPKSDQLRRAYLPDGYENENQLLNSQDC
Chain of proteins of U3A human fibrosarcoma cells (4462 proteins detected) (Homo sapiens, UniProt O60749) (O60749 whole entry): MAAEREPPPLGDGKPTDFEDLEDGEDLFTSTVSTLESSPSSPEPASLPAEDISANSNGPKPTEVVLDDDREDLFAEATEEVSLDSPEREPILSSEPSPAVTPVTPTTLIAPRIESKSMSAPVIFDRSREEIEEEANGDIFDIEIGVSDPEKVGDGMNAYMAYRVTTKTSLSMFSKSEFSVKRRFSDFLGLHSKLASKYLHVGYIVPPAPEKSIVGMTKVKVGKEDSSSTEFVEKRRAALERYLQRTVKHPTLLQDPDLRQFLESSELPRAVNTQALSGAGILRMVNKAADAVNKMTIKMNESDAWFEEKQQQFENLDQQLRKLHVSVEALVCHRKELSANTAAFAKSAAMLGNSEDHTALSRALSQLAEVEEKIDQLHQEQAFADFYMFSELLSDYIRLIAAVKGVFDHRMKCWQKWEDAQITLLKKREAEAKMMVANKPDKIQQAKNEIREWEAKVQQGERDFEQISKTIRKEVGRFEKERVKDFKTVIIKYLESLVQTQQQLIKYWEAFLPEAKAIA
Chain of proteins of U3A human fibrosarcoma cells (4462 proteins detected) (Homo sapiens, UniProt P49247) (P49247 whole entry): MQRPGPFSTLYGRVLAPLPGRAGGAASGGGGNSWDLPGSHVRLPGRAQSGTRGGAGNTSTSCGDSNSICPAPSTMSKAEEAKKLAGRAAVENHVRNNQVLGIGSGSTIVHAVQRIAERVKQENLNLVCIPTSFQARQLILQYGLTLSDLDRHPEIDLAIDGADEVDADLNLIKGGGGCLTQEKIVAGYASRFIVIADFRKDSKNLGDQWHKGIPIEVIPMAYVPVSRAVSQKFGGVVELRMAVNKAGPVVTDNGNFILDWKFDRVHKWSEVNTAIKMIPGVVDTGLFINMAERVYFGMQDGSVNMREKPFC
Chain of proteins of U3A human fibrosarcoma cells (4462 proteins detected) (Homo sapiens, UniProt P11388) (P11388 whole entry): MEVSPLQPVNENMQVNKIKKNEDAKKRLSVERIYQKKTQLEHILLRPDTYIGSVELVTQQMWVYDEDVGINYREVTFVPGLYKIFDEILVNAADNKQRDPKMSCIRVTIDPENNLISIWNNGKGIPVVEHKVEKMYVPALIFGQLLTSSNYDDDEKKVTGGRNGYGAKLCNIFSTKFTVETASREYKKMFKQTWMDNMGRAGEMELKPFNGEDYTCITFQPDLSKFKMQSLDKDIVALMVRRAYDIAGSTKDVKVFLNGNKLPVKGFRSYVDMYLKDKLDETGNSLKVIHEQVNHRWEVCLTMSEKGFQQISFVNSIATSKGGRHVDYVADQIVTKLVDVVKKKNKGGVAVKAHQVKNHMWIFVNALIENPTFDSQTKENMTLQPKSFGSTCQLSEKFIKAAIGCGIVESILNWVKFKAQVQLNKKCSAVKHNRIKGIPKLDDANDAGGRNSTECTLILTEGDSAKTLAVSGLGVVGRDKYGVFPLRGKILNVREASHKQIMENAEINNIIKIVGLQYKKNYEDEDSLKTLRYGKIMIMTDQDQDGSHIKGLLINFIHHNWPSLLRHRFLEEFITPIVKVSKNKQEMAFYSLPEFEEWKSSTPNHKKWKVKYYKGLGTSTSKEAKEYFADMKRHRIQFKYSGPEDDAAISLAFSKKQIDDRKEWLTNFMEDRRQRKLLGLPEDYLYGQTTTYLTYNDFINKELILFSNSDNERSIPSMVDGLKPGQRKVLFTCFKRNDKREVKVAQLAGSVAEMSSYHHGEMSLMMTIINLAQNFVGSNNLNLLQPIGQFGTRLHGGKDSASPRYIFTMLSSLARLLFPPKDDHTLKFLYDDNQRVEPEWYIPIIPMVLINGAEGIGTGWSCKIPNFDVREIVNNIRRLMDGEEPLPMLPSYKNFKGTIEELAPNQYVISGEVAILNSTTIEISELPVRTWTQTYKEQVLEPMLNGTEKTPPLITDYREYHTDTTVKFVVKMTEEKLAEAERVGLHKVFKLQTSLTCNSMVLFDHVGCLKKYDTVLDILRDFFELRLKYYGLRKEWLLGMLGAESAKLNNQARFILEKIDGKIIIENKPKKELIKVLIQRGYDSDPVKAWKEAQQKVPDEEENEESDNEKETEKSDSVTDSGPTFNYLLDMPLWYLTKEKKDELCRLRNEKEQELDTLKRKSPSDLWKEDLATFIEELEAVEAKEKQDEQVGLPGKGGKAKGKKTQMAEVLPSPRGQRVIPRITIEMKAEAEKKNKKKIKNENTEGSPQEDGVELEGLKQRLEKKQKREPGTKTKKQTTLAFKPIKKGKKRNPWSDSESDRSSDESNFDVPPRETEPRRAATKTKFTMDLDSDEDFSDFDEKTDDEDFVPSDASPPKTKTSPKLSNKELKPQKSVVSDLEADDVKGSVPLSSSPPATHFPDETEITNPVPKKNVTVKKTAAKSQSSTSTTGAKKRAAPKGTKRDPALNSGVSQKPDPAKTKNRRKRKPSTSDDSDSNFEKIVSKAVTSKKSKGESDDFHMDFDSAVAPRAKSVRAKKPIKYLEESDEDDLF
Chain of proteins of U3A human fibrosarcoma cells (4462 proteins detected) (Homo sapiens, UniProt P30519) (P30519 whole entry): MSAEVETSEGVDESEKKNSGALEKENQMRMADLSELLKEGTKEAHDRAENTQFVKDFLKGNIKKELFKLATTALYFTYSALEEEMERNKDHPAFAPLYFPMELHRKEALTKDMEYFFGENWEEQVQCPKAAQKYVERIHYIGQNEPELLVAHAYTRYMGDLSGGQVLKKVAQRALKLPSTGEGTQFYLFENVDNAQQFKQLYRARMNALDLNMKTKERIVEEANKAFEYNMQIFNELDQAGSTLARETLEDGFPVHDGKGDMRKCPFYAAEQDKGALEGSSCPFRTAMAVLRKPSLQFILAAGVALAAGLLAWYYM
Chain of proteins of U3A human fibrosarcoma cells (4462 proteins detected) (Homo sapiens, UniProt Q8WW01) (Q8WW01 whole entry): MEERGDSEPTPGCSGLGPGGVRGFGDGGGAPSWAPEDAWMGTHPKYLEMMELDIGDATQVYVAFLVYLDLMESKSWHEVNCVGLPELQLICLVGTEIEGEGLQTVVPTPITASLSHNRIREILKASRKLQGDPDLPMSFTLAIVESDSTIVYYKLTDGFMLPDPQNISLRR
Chain of proteins of U3A human fibrosarcoma cells (4462 proteins detected) (Homo sapiens, UniProt Q9BSL1) (Q9BSL1 whole entry): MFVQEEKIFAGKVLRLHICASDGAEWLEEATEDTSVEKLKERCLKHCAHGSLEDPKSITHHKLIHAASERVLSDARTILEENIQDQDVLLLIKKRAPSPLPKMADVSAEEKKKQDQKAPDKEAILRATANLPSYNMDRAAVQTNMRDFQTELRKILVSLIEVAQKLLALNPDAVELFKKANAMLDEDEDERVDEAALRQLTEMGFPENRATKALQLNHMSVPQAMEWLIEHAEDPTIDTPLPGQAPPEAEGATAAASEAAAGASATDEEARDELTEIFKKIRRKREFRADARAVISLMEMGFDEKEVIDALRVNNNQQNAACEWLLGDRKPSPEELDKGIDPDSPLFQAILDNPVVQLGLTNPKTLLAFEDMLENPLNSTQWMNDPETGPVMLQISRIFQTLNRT

**Q.** Which results are given for `CCc1nc(N)nc(N)c1-c1ccc(Cl)cc1` [pyrimethamine]?
**A.** Log2 (PYR/DMSO) [1]: 0.21; Log2 (PYR/DMSO) [2]: 0.17; Log2 (PYR/DMSO) [3]: 0.21; Log2 (PYR/DMSO) [4]: 0.19; Log2 (PYR/DMSO) [5]: 0.19; Log2 (PYR/DMSO) [6]: -0.04; Log2 (PYR/DMSO) [7]: 0.18; Log2 (PYR/DMSO), RAC2 [8]: -0.15; Log2 (PYR/DMSO), HMOX2 [9]: 0.25; Log2 (PYR/DMSO) [10]: 0.16; Log2 (PYR/DMSO) [11]: 0.20; Log2 (PYR/DMSO) [12]: 0.17; Log2 (PYR/DMSO) [13]: -0.05; Log2 (PYR/DMSO) [14]: 0.17; Log2 (PYR/DMSO) [15]: -0.04; Log2 (PYR/DMSO) ([16]; U3A cells): -0.03; Log2 (PYR/DMSO), PPIA ([16]; U3A, 10 μM, 2 h): -0.14; Log2 (PYR/DMSO) [17]: 0.15; Log2 (PYR/DMSO) [18]: 0.14; Log2 (PYR/DMSO) [19]: 0.15; Log2 (PYR/DMSO) [20]: 0.17; Log2 (PYR/DMSO) [21]: 0.22; Log2 (PYR/DMSO) [22]: 0.19; Log2 (PYR/DMSO) [23]: 0.17; Log2 (PYR/DMSO), TSEN15 [24]: -0.15; Log2 (PYR/DMSO) [25]: 0.15; Log2 (PYR/DMSO) [26]: 0.13; Log2 (PYR/DMSO) [27]: -0.04; Log2 (PYR/DMSO) [28]: 0.14; Log2 (PYR/DMSO) [29]: -0.05; Log2 (PYR/DMSO) [30]: 0.15
